Reference: ChEMBL document CHEMBL3102782, “Current status of the research and development of diacylglycerol O-acyltransferase 1 (DGAT1) inhibitors” (J Med Chem, 2013)
Blank lines part the entries; values can stand above or below the compound they belong to.

Key:
Mus musculus = experiment: Toxicity in DIO C57BL6 mouse assessed as body weight loss at 30 mg/kg, po administered qd from day 1 to 7 and bid from day 8 to 14 followed by single dose on day 15 morning; assay type: organism-based; design: dose 30 mg/kg, route oral; conditions: in vivo
Homo sapiens [1] = species: Homo sapiens; experiment: Reduction of triglyceride AUC in human at 60 mg; assay type: functional; design: scale not given: the % may be the effect or the level left
Homo sapiens [2] = species: Homo sapiens; experiment: Reduction of triglyceride AUC in human; assay type: functional, organism-based
Homo sapiens [3] = species: Homo sapiens; experiment: Reduction of triglyceride AUC in human relative to baseline; assay type: functional; design: scale not given: the % may be the effect or the level left
Homo sapiens [4] = species: Homo sapiens; experiment: Reduction of triglyceride AUC in human receiving 60% fat meal at >5 mg; assay type: functional; design: scale not given: the % may be the effect or the level left
[5] = Tmax in human; assay type: ADME, organism-based; conditions: in vivo
Homo sapiens [6] = experiment: Reduction in triglycerides in familial chylomicronemia syndrome patients measured after 3 weeks of compound dosing; assay type: functional; design: scale not given: the % may be the effect or the level left

SMILES: CC1(C)Oc2ncnc(N)c2N=C1c1ccc([C@H]2CC[C@H](CC(=O)O)CC2)cc1
Activity (Mus musculus): 6.7%

EC50 (Homo sapiens [2]): 440 nM
Tmax [5]: 1 h
SMILES: Cc1nc(C)c(-c2ccc(C3CCC(CC(=O)O)CC3)cc2)nc1C(N)=O (configuration not stated) [AZD-7687]
Activity (Homo sapiens [1]): 50%
Activity (Homo sapiens [3]): 84%
Activity (Homo sapiens [4]): >75%

SMILES: O=C(O)C[C@H]1CC[C@H](c2ccc(-c3ccc(Nc4ccc(C(F)(F)F)nc4)cn3)cc2)CC1 [PRADIGASTAT]
Activity (Homo sapiens [6]): 38.4%
